From ChEMBL document CHEMBL3593241, “Leveraging the Pre-DFG Residue Thr-406 To Obtain High Kinase Selectivity in an Aminopyrazole-Type PAK1 Inhibitor Series” (ACS Med Chem Lett, 2015)
Values belong to the compound of their own block, whether it stands above or below them.

Tests used:
[1] = biological target: Protein kinase C theta type (Homo sapiens) (UniProt Q04759); experiment: Inhibition of recombinant human PKCtheta at 1 uM relative to control
[2] = Oral bioavailability in mouse at 25 mg/kg; assay type: ADME, organism-based; details: in vivo
[3] = biological target: T1, Serine/threonine-protein kinase PAK 1 (Homo sapiens, UniProt Q13153); experiment: Inhibition of PAK1 (unknown origin)
[4] = biological target: T2, Aurora kinase A (Homo sapiens, UniProt O14965); experiment: Inhibition of Aurora A (unknown origin)
T2 sequence (O14965 whole entry): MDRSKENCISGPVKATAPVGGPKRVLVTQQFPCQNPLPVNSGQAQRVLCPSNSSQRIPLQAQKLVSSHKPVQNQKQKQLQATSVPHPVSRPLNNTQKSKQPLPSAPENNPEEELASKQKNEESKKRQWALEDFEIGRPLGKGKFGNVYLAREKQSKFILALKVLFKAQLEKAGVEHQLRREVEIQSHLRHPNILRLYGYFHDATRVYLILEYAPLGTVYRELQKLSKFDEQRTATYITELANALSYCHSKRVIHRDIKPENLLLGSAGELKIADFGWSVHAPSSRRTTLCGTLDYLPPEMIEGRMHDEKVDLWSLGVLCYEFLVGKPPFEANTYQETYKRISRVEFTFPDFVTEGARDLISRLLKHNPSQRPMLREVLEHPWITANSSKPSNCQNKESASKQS

[5] = system: Mus musculus; experiment: (§1) AUC in mouse at 25 mg/kg, po; assay type: ADME, organism-based; details: in vivo, BLD = below limit of detection
[6] = biological target: CDK2/Cyclin A2 (Homo sapiens) (UniProt P24941+P20248); experiment: Inhibition of recombinant human CDK2/cyclin A at 1 uM relative to control; assay type: protein-complex assay
[7] = Clearance in mouse at 0.3 mg/kg, iv; assay type: ADME, organism-based; details: in vivo
[8] = Lipophilicity, log D of the compound at pH 7.4; assay type: physicochemical; details: buffer
[9] = biological target: T3, Serine/threonine-protein kinase PAK 4 (Homo sapiens, UniProt O96013); experiment: Inhibition of PAK4 (unknown origin)
Target sequence in this assay (O96013 whole entry): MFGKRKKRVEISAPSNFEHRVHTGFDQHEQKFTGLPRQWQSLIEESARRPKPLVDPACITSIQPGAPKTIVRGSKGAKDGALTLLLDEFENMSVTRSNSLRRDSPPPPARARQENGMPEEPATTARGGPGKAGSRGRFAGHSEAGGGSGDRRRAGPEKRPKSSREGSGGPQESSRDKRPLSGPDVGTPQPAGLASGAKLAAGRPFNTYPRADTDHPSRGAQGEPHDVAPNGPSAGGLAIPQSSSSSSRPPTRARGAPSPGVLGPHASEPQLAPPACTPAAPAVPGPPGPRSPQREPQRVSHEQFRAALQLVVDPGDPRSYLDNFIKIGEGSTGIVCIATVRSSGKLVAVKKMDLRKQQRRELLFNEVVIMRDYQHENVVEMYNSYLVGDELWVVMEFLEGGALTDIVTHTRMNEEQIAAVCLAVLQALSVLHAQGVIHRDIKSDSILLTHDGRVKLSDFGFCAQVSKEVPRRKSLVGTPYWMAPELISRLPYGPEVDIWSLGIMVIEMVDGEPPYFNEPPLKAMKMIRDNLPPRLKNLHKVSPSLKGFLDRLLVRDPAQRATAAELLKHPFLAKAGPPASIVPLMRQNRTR

[10] = biological target: T1, Serine/threonine-protein kinase PAK 1; experiment: Inhibition of PAK1 in human EBC1 cells assessed as inhibition of MEK phosphorylation at S298; assay type: cell-based
[11] = Apparent permeability across apical to basolateral side of MDCK cells; assay type: ADME, cell-based, Canis lupus familiaris; details: dog
[12] = as §1; assay type: ADME, organism-based; details: in vivo
[13] = biological target: Mitogen-activated protein kinase kinase kinase 9 (Homo sapiens) (UniProt P80192); details: 1 uM
Description: Inhibition of recombinant human MLK1 at 1 uM relative to control

[14] = biological target: Proto-oncogene tyrosine-protein kinase Src (Homo sapiens) (UniProt P12931); details: 1 uM
Description: Inhibition of recombinant human Src at 1 uM relative to control

[15] = biological target: Mitogen-activated protein kinase kinase kinase kinase 5 (Homo sapiens) (UniProt Q9Y4K4); details: 1 uM
Description: Inhibition of recombinant human KHS1 at 1 uM relative to control

[16] = biological target: T3, Serine/threonine-protein kinase PAK 4; details: 1 uM
Target sequence in this assay (O96013 whole entry, looked up): as the sequence (O96013 whole entry) above
Description: Inhibition of recombinant human PAK4 at 1 uM relative to control

[17] = biological target: Serine/threonine-protein kinase 3 (Homo sapiens) (UniProt Q13188); details: 1 uM
Description: Inhibition of recombinant human MST2 at 1 uM relative to control

[18] = biological target: BDNF/NT-3 growth factors receptor (Homo sapiens) (UniProt Q16620); details: 1 uM
Description: Inhibition of recombinant human TrkB at 1 uM relative to control

[19] = system: Platelet-derived growth factor receptor alpha (Homo sapiens), P16234 [V561D]; details: 1 uM
Description: Inhibition of recombinant human PDGFRalpha V561D mutant at 1 uM relative to control

[20] = biological target: Tyrosine-protein kinase JAK2 (Homo sapiens) (UniProt O60674); details: 1 uM
Description: Inhibition of recombinant human JAK2 at 1 uM relative to control

[21] = biological target: Myotonin-protein kinase (Homo sapiens) (UniProt Q09013); details: 1 uM
Description: Inhibition of recombinant human DMPK at 1 uM relative to control

[22] = biological target: Cyclin-dependent kinase 1/cyclin B1 (Homo sapiens) (UniProt P06493+P14635); details: 1 uM
Description: Inhibition of recombinant human CDK1/cyclin B at 1 uM relative to control

[23] = biological target: Cyclin-dependent kinase 5/CDK5 activator 1 (Homo sapiens) (UniProt Q00535+Q15078); details: 1 uM
Description: Inhibition of recombinant human CDK5/p25 at 1 uM relative to control

[24] = biological target: Receptor-type tyrosine-protein kinase FLT3 (Homo sapiens) (UniProt P36888); details: 1 uM
Description: Inhibition of recombinant human FLT3 at 1 uM relative to control

[25] = biological target: T1, Serine/threonine-protein kinase PAK 1; details: 1 uM
Description: Inhibition of recombinant human PAK1 at 1 uM relative to control

[26] = biological target: Cyclin-dependent kinase 7/ cyclin H (Homo sapiens) (UniProt P51946+P50613); details: 1 uM
Description: Inhibition of recombinant human CDK7/cyclin H at 1 uM relative to control

[27] = biological target: Aurora kinase A (Homo sapiens) (UniProt O14965); details: 1 uM
Description: Inhibition of recombinant human Aurora A at 1 uM relative to control

[28] = biological target: Serine/threonine-protein kinase 4 (Homo sapiens) (UniProt Q13043); details: 1 uM
Description: Inhibition of recombinant human MST1 at 1 uM relative to control

[29] = biological target: Ribosomal protein S6 kinase alpha-2 (Homo sapiens) (UniProt Q15349); details: 1 uM
Description: Inhibition of recombinant human RSK3 at 1 uM relative to control

[30] = biological target: High affinity nerve growth factor receptor (Homo sapiens) (UniProt P04629); details: 1 uM
Description: Inhibition of recombinant human TrkA at 1 uM relative to control

[31] = biological target: Protein kinase C alpha type (Homo sapiens) (UniProt P17252); details: 1 uM
Description: Inhibition of recombinant human PKCalpha at 1 uM relative to control

[32] = biological target: Epidermal growth factor receptor (Homo sapiens) (UniProt P00533); details: 1 uM
Description: Inhibition of recombinant human EGFR at 1 uM relative to control

[33] = biological target: Vascular endothelial growth factor receptor 2 (Homo sapiens) (UniProt P35968); details: 1 uM
Description: Inhibition of recombinant human KDR at 1 uM relative to control

[34] = biological target: Protein kinase C delta type (Homo sapiens) (UniProt Q05655); details: 1 uM
Description: Inhibition of recombinant human PKCdelta at 1 uM relative to control

[35] = biological target: Glycogen synthase kinase-3 alpha (Homo sapiens) (UniProt P49840); details: 1 uM
Sequence of Glycogen synthase kinase-3 alpha (Homo sapiens) (P49840 2-483 limits assumed): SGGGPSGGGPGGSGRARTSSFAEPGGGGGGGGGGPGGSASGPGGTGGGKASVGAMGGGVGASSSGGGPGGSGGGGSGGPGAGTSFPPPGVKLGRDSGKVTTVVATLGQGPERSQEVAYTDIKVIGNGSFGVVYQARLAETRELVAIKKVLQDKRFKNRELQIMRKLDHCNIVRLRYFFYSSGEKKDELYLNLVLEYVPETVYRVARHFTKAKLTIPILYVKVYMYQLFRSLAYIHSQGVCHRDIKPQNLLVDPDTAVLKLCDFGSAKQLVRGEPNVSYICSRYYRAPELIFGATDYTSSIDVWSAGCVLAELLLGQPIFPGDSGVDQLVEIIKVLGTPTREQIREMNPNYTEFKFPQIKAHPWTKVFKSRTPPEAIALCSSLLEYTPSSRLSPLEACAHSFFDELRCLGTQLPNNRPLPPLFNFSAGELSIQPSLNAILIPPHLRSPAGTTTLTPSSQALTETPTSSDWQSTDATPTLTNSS
Description: Inhibition of GSK-3alpha (unknown origin) at 1 uM relative to control

T1 sequence (Q13153 whole entry): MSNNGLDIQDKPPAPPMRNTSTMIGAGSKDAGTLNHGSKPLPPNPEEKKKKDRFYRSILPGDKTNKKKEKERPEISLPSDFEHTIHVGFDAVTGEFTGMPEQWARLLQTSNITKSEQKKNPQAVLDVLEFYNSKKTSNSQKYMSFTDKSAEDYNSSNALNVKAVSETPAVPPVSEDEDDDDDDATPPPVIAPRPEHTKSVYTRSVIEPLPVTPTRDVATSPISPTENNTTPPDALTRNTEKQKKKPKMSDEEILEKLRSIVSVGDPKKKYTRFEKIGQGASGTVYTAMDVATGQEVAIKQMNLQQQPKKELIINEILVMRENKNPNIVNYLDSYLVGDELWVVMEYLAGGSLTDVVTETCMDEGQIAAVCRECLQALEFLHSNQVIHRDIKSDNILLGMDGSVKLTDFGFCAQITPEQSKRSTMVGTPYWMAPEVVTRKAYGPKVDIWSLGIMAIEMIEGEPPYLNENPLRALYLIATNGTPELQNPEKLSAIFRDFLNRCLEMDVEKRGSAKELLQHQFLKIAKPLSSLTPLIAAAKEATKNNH
Sequence of Protein kinase C theta type (Homo sapiens) (Q04759 whole entry, looked up): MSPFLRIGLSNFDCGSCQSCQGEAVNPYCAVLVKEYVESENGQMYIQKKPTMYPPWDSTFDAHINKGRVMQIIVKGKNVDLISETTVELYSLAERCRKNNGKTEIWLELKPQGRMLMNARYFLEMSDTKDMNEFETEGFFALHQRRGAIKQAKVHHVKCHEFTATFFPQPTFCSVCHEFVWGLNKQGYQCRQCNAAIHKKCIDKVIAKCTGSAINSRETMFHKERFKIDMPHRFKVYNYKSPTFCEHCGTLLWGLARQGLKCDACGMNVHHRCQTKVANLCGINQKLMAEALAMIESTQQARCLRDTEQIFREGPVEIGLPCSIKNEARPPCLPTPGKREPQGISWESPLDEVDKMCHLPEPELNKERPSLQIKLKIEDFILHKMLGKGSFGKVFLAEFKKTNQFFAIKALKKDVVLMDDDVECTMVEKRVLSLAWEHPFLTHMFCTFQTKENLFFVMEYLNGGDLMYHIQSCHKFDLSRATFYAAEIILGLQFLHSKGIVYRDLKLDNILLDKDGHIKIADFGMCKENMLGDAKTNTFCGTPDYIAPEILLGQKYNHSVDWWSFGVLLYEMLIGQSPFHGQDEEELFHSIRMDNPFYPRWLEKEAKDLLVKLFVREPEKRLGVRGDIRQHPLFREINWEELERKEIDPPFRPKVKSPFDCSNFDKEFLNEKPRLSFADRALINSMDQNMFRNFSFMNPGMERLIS
Sequence of BDNF/NT-3 growth factors receptor (Homo sapiens) (Q16620 32-822 limits assumed): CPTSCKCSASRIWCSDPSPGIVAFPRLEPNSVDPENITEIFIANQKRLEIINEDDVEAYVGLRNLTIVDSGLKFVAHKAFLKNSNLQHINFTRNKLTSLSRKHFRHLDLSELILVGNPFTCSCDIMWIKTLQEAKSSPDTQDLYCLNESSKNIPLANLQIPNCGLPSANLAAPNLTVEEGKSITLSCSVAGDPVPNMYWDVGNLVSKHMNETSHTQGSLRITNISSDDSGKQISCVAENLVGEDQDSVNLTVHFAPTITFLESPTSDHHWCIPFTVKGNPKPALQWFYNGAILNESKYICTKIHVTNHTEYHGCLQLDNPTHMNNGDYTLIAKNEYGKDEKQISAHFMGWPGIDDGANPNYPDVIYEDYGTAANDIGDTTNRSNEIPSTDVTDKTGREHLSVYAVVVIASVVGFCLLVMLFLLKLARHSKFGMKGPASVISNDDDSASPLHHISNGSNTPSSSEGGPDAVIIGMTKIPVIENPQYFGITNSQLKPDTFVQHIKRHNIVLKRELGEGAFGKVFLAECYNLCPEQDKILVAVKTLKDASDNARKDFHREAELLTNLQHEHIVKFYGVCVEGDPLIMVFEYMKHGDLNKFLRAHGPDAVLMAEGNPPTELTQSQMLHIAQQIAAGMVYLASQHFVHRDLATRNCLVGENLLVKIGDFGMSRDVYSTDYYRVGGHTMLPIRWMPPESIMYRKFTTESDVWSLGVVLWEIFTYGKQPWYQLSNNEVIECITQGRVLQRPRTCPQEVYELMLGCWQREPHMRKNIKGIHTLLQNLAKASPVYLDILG
Sequence of High affinity nerve growth factor receptor (Homo sapiens) (P04629 33-796 limits assumed): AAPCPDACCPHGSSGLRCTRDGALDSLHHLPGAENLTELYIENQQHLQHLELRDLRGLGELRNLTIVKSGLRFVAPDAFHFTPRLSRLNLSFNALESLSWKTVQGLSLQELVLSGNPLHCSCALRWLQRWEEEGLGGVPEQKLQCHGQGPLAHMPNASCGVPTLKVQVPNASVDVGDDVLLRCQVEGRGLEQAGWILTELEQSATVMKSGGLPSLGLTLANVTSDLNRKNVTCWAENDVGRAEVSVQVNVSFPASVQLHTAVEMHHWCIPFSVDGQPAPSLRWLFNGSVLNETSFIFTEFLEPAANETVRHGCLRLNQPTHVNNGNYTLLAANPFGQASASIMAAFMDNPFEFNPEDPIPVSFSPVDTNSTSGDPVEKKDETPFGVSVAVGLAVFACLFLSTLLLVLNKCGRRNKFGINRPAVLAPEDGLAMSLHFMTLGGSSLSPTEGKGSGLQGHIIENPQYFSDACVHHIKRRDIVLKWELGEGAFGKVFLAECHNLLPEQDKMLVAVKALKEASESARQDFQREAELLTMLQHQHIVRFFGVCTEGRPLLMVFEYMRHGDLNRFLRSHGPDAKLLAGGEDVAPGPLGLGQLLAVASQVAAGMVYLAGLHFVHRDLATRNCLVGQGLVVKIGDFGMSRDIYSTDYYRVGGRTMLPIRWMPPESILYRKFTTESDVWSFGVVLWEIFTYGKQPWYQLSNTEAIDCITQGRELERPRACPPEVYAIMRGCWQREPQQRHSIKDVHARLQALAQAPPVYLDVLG
Sequence of Proto-oncogene tyrosine-protein kinase Src (Homo sapiens) (P12931 2-536 limits assumed): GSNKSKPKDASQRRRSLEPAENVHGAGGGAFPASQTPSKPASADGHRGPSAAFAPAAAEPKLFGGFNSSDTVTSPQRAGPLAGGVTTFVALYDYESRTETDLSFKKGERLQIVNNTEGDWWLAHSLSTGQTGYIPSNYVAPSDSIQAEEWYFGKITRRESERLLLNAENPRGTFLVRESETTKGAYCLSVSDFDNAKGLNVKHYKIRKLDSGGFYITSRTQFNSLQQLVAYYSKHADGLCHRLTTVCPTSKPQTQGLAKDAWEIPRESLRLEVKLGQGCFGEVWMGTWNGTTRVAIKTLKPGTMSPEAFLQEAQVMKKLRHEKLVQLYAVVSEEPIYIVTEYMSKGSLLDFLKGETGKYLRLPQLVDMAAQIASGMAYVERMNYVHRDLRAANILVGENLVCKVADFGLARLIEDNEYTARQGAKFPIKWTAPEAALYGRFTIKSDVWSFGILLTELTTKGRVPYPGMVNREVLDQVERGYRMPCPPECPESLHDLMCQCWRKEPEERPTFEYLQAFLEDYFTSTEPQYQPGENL
Sequence of Serine/threonine-protein kinase 3 (Homo sapiens) (Q13188 whole entry): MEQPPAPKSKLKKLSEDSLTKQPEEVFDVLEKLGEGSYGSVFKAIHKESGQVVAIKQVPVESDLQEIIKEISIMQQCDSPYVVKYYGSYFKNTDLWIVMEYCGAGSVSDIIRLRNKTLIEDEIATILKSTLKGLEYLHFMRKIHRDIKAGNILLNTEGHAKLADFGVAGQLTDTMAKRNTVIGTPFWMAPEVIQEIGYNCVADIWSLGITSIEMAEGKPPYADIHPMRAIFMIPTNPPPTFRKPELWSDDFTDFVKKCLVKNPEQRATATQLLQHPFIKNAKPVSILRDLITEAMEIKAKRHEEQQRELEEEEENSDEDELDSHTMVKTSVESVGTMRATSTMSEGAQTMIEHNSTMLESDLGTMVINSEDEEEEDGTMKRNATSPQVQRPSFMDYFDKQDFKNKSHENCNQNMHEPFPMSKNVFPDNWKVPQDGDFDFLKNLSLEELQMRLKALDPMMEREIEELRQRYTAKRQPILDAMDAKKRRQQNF

SMILES: CCN(C[C@H]1CC[C@H](N)CC1)c1nccc(Nc2cc([C@H]3CCN(C)C3=O)[nH]n2)n1
inhibition [1]: > 75% | bioavailability [2]: < 1% | Ki [3]: 49 nM | Ki [4]: > 5400 nM | AUC [5]: BLD | inhibition [6]: < 75% | clearance [7]: 33 mL/min/kg | logD [8]: 0.12 | Ki [9]: 621 nM | IC50 [10]: > 10000 nM

SMILES: CN1CCCC(c2cc(Nc3ccnc(N(C)C[C@H]4CC[C@H](N)CC4)n3)n[nH]2)C1=O (mixture of isomers)
Ki [3]: 362 nM | Ki [4]: > 5400 nM | Ki [9]: 2490 nM

SMILES: CN1CC(C)(C)C(c2cc(Nc3ccnc(N(C)C[C@H]4CC[C@H](N)CC4)n3)n[nH]2)C1=O (stereo partly drawn)
Ki [3]: > 4500 nM | Ki [4]: > 5400 nM | Ki [9]: > 2900 nM

SMILES: CN1CC[C@H](c2cc(Nc3ccnc(N(C)C[C@H]4CC[C@H](N)CC4)n3)n[nH]2)C1=O
bioavailability [2]: < 1% | Ki [3]: 37 nM | Ki [4]: 3500 nM | logD [8]: 0.96 | Ki [9]: 344 nM | IC50 [10]: > 10000 nM

SMILES: C[C@H]1CN(C)C(=O)[C@@H]1c1cc(Nc2ccnc(N(C)C[C@H]3CC[C@H](N)CC3)n2)n[nH]1
inhibition [1]: > 75% | inhibition [13]: < 75% | inhibition [14]: < 75% | inhibition [15]: < 75% | inhibition [16]: < 75% | inhibition [17]: < 75% | inhibition [18]: < 75% | Ki [3]: 46 nM | inhibition [19]: < 75% | inhibition [20]: < 75% | inhibition [21]: < 75% | inhibition [22]: < 75% | inhibition [23]: < 75% | inhibition [24]: < 75% | Ki [4]: > 5400 nM | inhibition [25]: > 75% | inhibition [26]: < 75% | inhibition [6]: < 75% | inhibition [27]: < 75% | inhibition [28]: < 75% | inhibition [29]: < 75% | inhibition [30]: < 75% | inhibition [31]: < 75% | inhibition [32]: < 75% | inhibition [33]: < 75% | Ki [9]: 1020 nM | inhibition [34]: < 75% | inhibition [35]: < 75%

SMILES: CCN1CC[C@H](c2cc(Nc3ccnc(N(C)C[C@H]4CC[C@H](N)CC4)n3)n[nH]2)C1=O
Ki [3]: 18 nM | Ki [4]: > 5400 nM | Ki [9]: 817 nM

SMILES: CN1CC[C@H](c2cc(Nc3ccnc(NC[C@H]4CC[C@H](N)CC4)n3)n[nH]2)C1=O
Ki [3]: 111 nM | Ki [4]: > 5400 nM | Ki [9]: 1270 nM

Second part, the compound after the results:

Papp A→B [11]: 5 ×10⁻⁶ cm/s | bioavailability [2]: < 1% | Ki [3]: 18 nM | Ki [4]: > 5400 nM | AUC [12]: 5.2 µM·h | clearance [7]: 7 mL/min/kg | logD [8]: 1.8 | Ki [9]: 950 nM | IC50 [10]: 7800 nM
SMILES: CN1CC[C@H](c2cc(Nc3ccnc(N(C)Cc4ccc5[nH]cnc5c4Cl)n3)n[nH]2)C1=O

Ki [3]: 373 nM | Ki [4]: 893 nM | Ki [9]: > 2900 nM
SMILES: CC(=O)N(C)Cc1cc(Nc2ccnc(N(C)Cc3ccc4[nH]cnc4c3Cl)n2)n[nH]1

Ki [3]: 552 nM | Ki [4]: > 5400 nM | Ki [9]: > 2900 nM
SMILES: CN1CC[C@@H](c2cc(Nc3ccnc(N(C)Cc4ccc5[nH]cnc5c4Cl)n3)n[nH]2)C1=O

Ki [3]: 25 nM | Ki [4]: 25 nM | Ki [9]: 1300 nM
SMILES: Clc1c(CNc2nccc(Nc3cc(C4CCCO4)[nH]n3)n2)ccc2[nH]cnc12 (racemic)

Ki [3]: 29 nM | Ki [4]: 131 nM | Ki [9]: 617 nM
SMILES: COCC(C)c1cc(Nc2ccnc(N(C)Cc3ccc4[nH]cnc4c3Cl)n2)n[nH]1 (stereo not drawn)

Ki [3]: 5 nM | Ki [4]: 3 nM | Ki [9]: 272 nM
SMILES: CN(Cc1ccc2[nH]cnc2c1Cl)c1nccc(Nc2cc(C3CC3)[nH]n2)n1

Ki [3]: 16 nM | Ki [4]: 17 nM | Ki [9]: 629 nM
SMILES: CN(Cc1ccc2[nH]cnc2c1Cl)c1nccc(Nc2cc(C3CCC(=O)C3)[nH]n2)n1 (racemic)
